Reference: PubChem BioAssay (NCI)
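Cells were grown in 96-well plates and exposed to each compound for 48 hours at five concentrations; endpoints were interpolated linearly between bracketing concentrations, or set to the highest concentration if not reached. At the TGI there is no net growth.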

How the values were obtained:
Experiment in all cases: NCI-60 cell line screen, 48 h
HL-60(TB) leukemia = tested on: HL-60(TB) leukemia
LOX IMVI melanoma = tested on: LOX IMVI melanoma
SF-295 CNS = tested on: SF-295 CNS
RXF 393 renal = tested on: RXF 393 renal
U251 CNS = tested on: U251 CNS
NCI-H226 lung = tested on: NCI-H226 lung
MDA-N = tested on: MDA-N
A498 renal = tested on: A498 renal
MOLT-4 leukemia = tested on: MOLT-4 leukemia
OVCAR-8 ovarian = tested on: OVCAR-8 ovarian
SW-620 colon = tested on: SW-620 colon
IGROV1 ovarian = tested on: IGROV1 ovarian
HS 578T breast = tested on: HS 578T breast
A549 NSCLC = tested on: A549 NSCLC
MDA-MB-435 = tested on: MDA-MB-435
MDA-MB-231 breast = tested on: MDA-MB-231 breast
HOP-62 NSCLC = tested on: HOP-62 NSCLC
NCI-H23 lung = tested on: NCI-H23 lung
SR leukemia = tested on: SR leukemia
T-47D breast = tested on: T-47D breast

SMILES	TGI (HL-60(TB) leukemia) [µM]	TGI (LOX IMVI melanoma) [µM]	TGI (SF-295 CNS) [µM]	TGI (RXF 393 renal) [µM]	TGI (U251 CNS) [µM]	TGI (NCI-H226 lung) [µM]	TGI (MDA-N) [µM]	TGI (A498 renal) [µM]	TGI (MOLT-4 leukemia) [µM]	TGI (OVCAR-8 ovarian) [µM]	TGI (SW-620 colon) [µM]	TGI (IGROV1 ovarian) [µM]	TGI (HS 578T breast) [µM]	TGI (A549 NSCLC) [µM]	TGI (MDA-MB-435) [µM]	TGI (MDA-MB-231 breast) [µM]	TGI (HOP-62 NSCLC) [µM]	TGI (NCI-H23 lung) [µM]	TGI (SR leukemia) [µM]	TGI (T-47D breast) [µM]
COc1ccc(-c2c(C#N)c(-c3ccc(C)cc3)n(NS(=O)(=O)c3ccccc3)c(=O)c2C#N)cc1	52.3	> 100	> 100	> 100	> 100	> 100	> 100	> 100	60.4	> 100	> 100	> 100	> 100	> 100	> 100	> 100	> 100			
O=C(NCc1ccccc1)c1cc2cc(O)c(O)cc2cn1	48.6	66.4	> 100	62.3	> 100	89.9		> 100		89.7	> 100	73.2		> 100			81.1	46.8	> 100	
Cc1cc2c(cc1Cl)SC(N/N=C(\N)c1ccc(Cl)cc1)=NS2(=O)=O	> 100	> 100	> 100	> 100	> 100	> 100		72.9	> 100	> 100	> 100	> 100	> 100	> 100	> 100	> 100	> 100	> 100		> 100
COC(=O)C[C@@H]1C(C)(C)[C@@H]2O[C@@]34C[C@@H]2C(=O)[C@]1(C)[C@H]3CC[C@@]1(C)[C@H](c2ccoc2)OC(=O)C[C@]14O	> 100	> 100	> 100		> 100	> 100	> 100	> 100	> 100	> 100	> 100	> 100		> 100	> 100	> 100	> 100	> 100	> 100	> 100
COC1O[C@@H]2CCN3C(=O)[C@@H](OC(=O)c4ccc([N+](=O)[O-])cc4)[C@H]1C23 (some centres undefined)		> 100	> 100	> 100	> 100	> 100		> 100	> 100	> 100	> 100	> 100	> 100	> 100	> 100	> 100	> 100	> 100	> 100	> 100
O=C1c2ccccc2-c2nc3ccc(O)cc3n21	> 100		> 100	> 100	> 100	> 100	> 100		> 100	> 100	> 100	> 100		> 100			> 100	> 100	> 100	
CCOP(=O)(OCC)C1CC(O)CN1OC(=O)C(C)(C)C (centres undefined)		> 100	> 100		> 100	> 100	> 100	> 100	> 100	> 100	> 100	> 100	> 100	> 100	> 100	> 100	> 100	> 100	> 100	
OCC1NCC(O)C(O)C1O (centres undefined)	> 100			> 100	> 100		> 100	> 100	> 100	> 100	> 100	> 100	> 100	> 100	> 100		> 100	> 100	> 100	
CCCN1CN(C(C(=O)N[C@@H]2C(=O)N3C2SC(C)(C)C3C(=O)O)c2ccccc2)CSC1=S (some centres undefined)	> 100	> 100	> 100		> 100			> 100	> 100	> 100	31.7	> 100		> 100			> 100	> 100		
Cc1ccc2c(=O)cc(-c3cccc4ccccc34)[nH]c2n1	0.0318	9.5	> 100	> 100	1.64	35.2		0.0568	> 100	0.305	> 100	> 100	> 91.5	> 48.1		> 100	> 100	> 100	> 100	> 100
OCC1OC(Oc2cc(O)cc(/C=C\c3ccc(O)cc3)c2)C(O)C(O)C1O (centres undefined)	> 100	> 100	> 100	> 100	> 100	> 100	> 100	> 100	> 100	> 100	> 100	> 100	> 100	> 100	> 100	> 100	> 100		> 100	
CC(NC(=O)C(N)Cc1ccc(O)cn1)C(=O)O (centres undefined)	> 100	> 100	> 100	> 100	> 100	> 100	> 100	> 100	> 100	> 100	> 100	> 100	> 100	> 100	> 100	> 100	> 100	> 100	> 100	
O=C1C2=Cc3ccccc3OC2(O)Oc2cc(O)ccc21 (centres undefined)		> 100	> 100	> 100	> 100	> 100	> 100	> 100	> 100	> 100	> 100	> 100		> 100	> 100	> 100	> 100	> 100		> 100
Cc1ccc(OCC2OC(C#N)C(Oc3ccc(C)cc3)C2Oc2ccc(C)cc2)cc1 (centres undefined)	> 100		> 100	> 100	> 100	> 100		> 100	> 100	> 100	> 100	> 100	> 100	> 100	> 100	> 100	> 100	> 100	> 100	> 100
CCOC(=O)C(Cc1ccccc1)NC(=O)c1ccc(N=NN(C)C)cc1 (centres undefined)	> 100	> 100	> 100		> 100	> 100		> 100	> 100	> 100	> 100	> 100		> 100			> 100	> 100	> 100	
COc1[nH]c(C(Cl)(Cl)Cl)c(Cl)c(=O)c1Cl	> 100	> 100	> 100		> 100	> 100	> 100	> 100	> 100	> 100	> 100	> 100		> 100	> 100	> 100	> 100	> 100	> 100	> 100
COc1cccc2c(NNc3ccccc3)c3ccc([N+](=O)[O-])cc3nc12		> 100	> 100	> 100	> 100	> 100	> 100	> 100	5.84	> 100	> 100	> 100		> 100	> 100	> 100	> 100	> 100	50.5	> 100
COc1ccccc1C(C1=C(O)COC1=O)c1cc2c(cc1OC(C)=O)OCO2 (centres undefined)	> 100	> 100	> 100	> 100	> 100	> 100	> 100	> 100	> 100	> 100	> 100	> 100	> 100	> 100	> 100	> 100	> 100	> 100	> 100	
C[C@]12CCC(=O)C=C1CC[C@@H]1[C@@H]2CC[C@]2(C)C(=O)[C@H](n3ccnc3)C[C@@H]12	> 100	> 100	> 100	> 100	> 100	> 100	> 100	> 100	> 100	> 100	> 100	> 100	> 100	> 100	> 100	> 100		> 100	> 100	
O=C(Cn1cc(-c2ccccc2)nn1)NC1CCCC1	> 100	> 100	> 100		> 100	> 100			> 100	> 100	> 100	> 100		> 100	> 100	> 100	> 100	> 100	> 100	
CCOC(=O)c1nc2ccccc2nc1NCc1ccc(OC)cc1	> 100	> 100	> 100	71.5	> 100	> 100		> 100	> 100	> 100	> 100	> 100	> 100	> 100	> 100	> 100	> 100	> 100	> 100	> 100
COc1ccc(CNC2=C(NC(C)=O)C(=O)c3ccccc3C2=O)cc1	7.45	18.7	> 50	12.8	47.5	> 50			17.7	> 50	14.9	> 50		> 50			> 50	14.7	> 50	
CCCCCCCCCCCCn1c(=O)cc(NCCCC)c2cc3c(NCCCC)cc(=O)n(CCCCCCCCCCCC)c3nc21			> 100		> 100	> 100	> 100	> 100	> 100					> 100	> 100	> 100	> 100	> 100		> 100
COc1ccc(CNc2nc3cc(C(F)(F)F)ccc3nc2C(=O)O)cc1OC		> 100	> 100		73.5	> 100	> 100	73.2	55.7	> 100	> 100	66		> 100	80.2	> 100	66.1	> 100	63.8	> 100
O=C(NC1CCC(=O)N1C(=O)OCc1ccccc1)OCc1ccccc1 (centres undefined)			> 100	> 100	> 100	> 100	> 100		> 100	> 100	> 100	> 100	> 100	> 100	> 100	> 100	> 100	> 100	> 100	
O=C(O)C(Cc1c[nH]c2ccccc12)N=Cc1nc(-c2ccccc2)oc1O (centres undefined)	> 100	> 100	> 100	> 100	> 100	> 100		> 100	> 100	> 100	> 100	> 100		> 100			> 100	> 100	> 100	
OC(c1cccnc1)C(F)(F)c1nc2ccccc2o1 (centres undefined)	> 100	> 100		> 100	> 100	> 100		> 100	> 100	> 100	> 100	> 100	> 100		> 100	> 100	> 100	> 100	> 100	> 100
C=CCNC(=S)N1c2ccccc2NC(=O)CC1C (centres undefined)	> 100	> 100	> 100	> 100	> 100	> 100			> 100	> 100	> 100	> 100		> 100			> 100	> 100	> 100	
